The source of these data is patent US5334707A, “Use of acyl phosphate esters in the modification of hemoglobin” (priority 1992, dated 1994).

Data set [1] concerns human hemoglobin. Put plainly: Inter-subunit cross-linking of hemoglobin by SDS-polyacrylamide gel electrophoresis. In kind it is biochemical. As to conditions: 0.3 mM hemoglobin, pH 7.4, 37° C., four hours. Here is the method:
Solutions (2 mL) of 4,4'stilbene dicarboxylic acid bis(methyl phosphate) at concentrations of 0.3 mM, 3.0 mM, 30 mM, and 300 mM were prepared in 0.100M tris-HCL buffer pH 7.4. A control solution containing only the buffer was prepared. To each of these freshly prepared solutions, 40 mg of human hemoglobin (Sigma Chemical Company) was added so that the resulting solution was 0.3 mM in hemoglobin. The reaction mixtures were than stirred vigorously and incubated at 37° C. After four hours the solutions were dialyzed against 0.100M sodium phosphate buffer, pH 7.0, for 20 hours at 4° C. to remove the unreacted acyl phosphates. The samples were then lyophilized and analyzed by SDS-polyacrylamide gel electrophoresis to assess the extent of intersubunit cross-linking (Weber, K; Osborn, M.; J. Biol. Chem. 1969, 244, 4406). Prior to electrophoresis, the hemoglobin samples, cross-linked bovine hemoglobin standard (Sigma Dalton Mark VII-L doubly crystallized, dialyzed, lyophilized), and molecular weight standards were denatured by boiling for 15 min. in 0.11M sodium phosphate buffer, pH 7.0, which contained 1% sodium dodecyl sulfate, 1% 2-mercaptoethanol, 36% urea, and 0.015% bromphenol blue. The final protein concentrations were 2 mg/mL and 10 to 20 μL aliquots were loaded on the gel. The process was conducted using a Bio-Rad Mini-Protean II dual slab cell apparatus. The extent of cross-linking of the hemoglobin could be estimated by visual comparison of the resolved electrophoretic bands after fixation followed by staining with Coomassie Brilliant Blue R.
The above procedure was repeated with solutions of fumaryl bis(methyl phosphate) at concentrations of 0.3 mM, 3.0 mM and 30 mM; 3,3'stilbene dicarboxylic acid bis(methyl phosphate) at a concentration of 30 mM and methyl acetyl phosphate at a concentration of 0.6M.

A short description of data set [2]: Solution stability (hydrolysis followed by 31P NMR) of bis(methyl acyl phosphates) in tris-HCl buffer. As to conditions: 0.100M tris-HCl buffer, pH 7.4, 37° C.; for half-life: 0.1 m tris-hcl buffer, 31P NMR. In kind it is physicochemical. Here is the method: The solution stability of the bis(methyl acyl phosphates) was examined. The hydrolysis of fumaryl bis(sodium methyl phosphate), stilbene 3,3'dicarboxylic acid bis(sodium methyl phosphate) and stilbene 4,4'dicarboxylic acid bis(sodium methyl phosphate) in 0.100M tris-HCL buffer, pH 7.4, 37° C., were followed by integrating signals for the reactant and the phosphorus-containing product, methyl phosphate, in the ^31 P NMR spectrum. Production of methyl phosphate was observed as an indication of hydrolysis or of acylation of the buffer. […] The half life of the 3,3'stilbene derivative, was 100 hours. […] This is in agreement with earlier reports of the reactivity of acyl phosphate esters (Disabato, G.; Jencks, W. P., J. Am. Chem. Soc. 1961, 83, 4393, 4400).

The target of data set [3] is carbonmonoxyhemoglobin (COHb) (Homo sapiens, UniProt P68871+P69905). Put plainly: Reaction of FMP with carbonmonoxyhemoglobin, conversion by anion exchange chromatography. In kind it is biochemical. Here is the method:
The effect of pH, type of buffer, and ligand state of the cross-linked hemoglobin was examined for the reaction of fumaryl bis(methyl phosphate) (FMP) with hemoglobin.
ethanesulphonic acid]at pH 7.5, 35°, for 2 hours. Over the range of pH from 6.8 to 7.5, the greatest reaction between COHb and FMP was obtained at the pH of 7.2 in bisTris. The reaction at pH 7.2, . […] A second peak of reacted material observed by anion exchange chromatography increased over 3 hours from 14% at 10 minutes to about 30% by 3 hours.

Data set [4] relates to human hemoglobin. Put plainly: Cross-linking site of the reaction with hemoglobin. Format: biochemical. The text has this: Structural characterization of the major and some minor modified hemoglobins that result form reacting deoxyHb and COHb with FMP were made by isolating single hemoglobin components wherever possible. The initial separation was made on a preparative size Synchropak AX300 anion exchange column. Further purification was obtained by rechromatography of anion exchange zones containing mixtures of hemoglobins on a preparative size Synchropak CM300 cation exchange column. Zones from cation exchange rechromatography were then subjected to globin chain separation using Vydak C-4 large pore reverse phase columns. In some cases, this was sufficient for identification of the unmodified globin chains. In most cases the globin chain was isolated, treated by oxidations or aminoethylation to stabilize the zysteinyl residues, hydrolyzed with trypsin and glu-C proteonase and the resultant peptides were separated and analyzed for amino acid composition. Table II lists the components isolated and the structural modifications identified for the FMP treated hemoglobin.
The number, chromatographic elution positions, and amounts of products of hemoglobin reacted with FMP varies with the ligand state of the hemoglobin and with the presence or absence of 2,3-DPG (2,3, diphosphoglycerate). FIG. 1 is an artion exchange HPLC chromatogram of the reaction mixture after treatment of deoxyhemoglobin with FMP. […]

Entries after “also recorded” stand apart in the source; their conditions may differ.

Sequence of carbonmonoxyhemoglobin (COHb) (P69905 2-142 limits assumed): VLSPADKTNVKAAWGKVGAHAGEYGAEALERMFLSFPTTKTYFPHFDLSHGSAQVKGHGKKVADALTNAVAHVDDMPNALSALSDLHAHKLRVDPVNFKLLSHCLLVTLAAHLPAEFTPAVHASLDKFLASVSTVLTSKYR
Sequence of carbonmonoxyhemoglobin (COHb) (P68871 2-147 limits assumed): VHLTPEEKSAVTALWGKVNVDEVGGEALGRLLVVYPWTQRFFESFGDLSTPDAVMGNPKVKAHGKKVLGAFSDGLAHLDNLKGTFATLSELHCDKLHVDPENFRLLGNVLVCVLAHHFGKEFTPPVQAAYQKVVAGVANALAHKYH

`O=C(O)c1cccc(C=Cc2cccc(C(=O)O)c2)c1` [stilbene 3,3'-dicarboxylic acid, Stilbene 3,3'-dicarboxylic acid, reference compound]: in the data set on human hemoglobin [1], the “species produced by reaction with hemoglobin (SDS gel electrophoresis)” value (“species produced by reaction” below) was “monomeric”.

`COP(=O)(O)OC(=O)c1ccc(/C=C/c2ccc(C(=O)OP(=O)(O)OC)cc2)cc1` [Stilbene 4,4'-dicarboxylic acid bis(sodiummethyl phosphate)]: the “change observed in the 31P NMR spectrum” value in data set [2] (followed for nine hours) is listed as “no change observed in the spectrum”. Further, the “species produced by reaction” value with human hemoglobin [1] is “dimeric and tetrameric species”.

As to `COP(=O)(O)OC(=O)/C=C/C(=O)OP(=O)(O)OC` [fumaryl bis(methyl phosphate), Fumaryl bis(sodium methyl phosphate)], in data set [2], the half-life (as a rule, how long it takes for the measured level to halve) was 36 h. The “species produced by reaction” value in the data set on human hemoglobin [1] is “dimeric and tetrameric species”. In addition, the “conversion of the hemoglobin to fumaryl derivatives” value in data set [3] (1 mM COHb, 2 mM FMP, pH 7.2, 35°, 2 hours) is on record as “about 75%”. Also, the “second peak of reacted material” value is 14% in data set [3] (1 mM COHb, 2 mM FMP, pH 7.2, 35°, at 10 minutes) and “about 30%” in data set [3] (1 mM COHb, 2 mM FMP, pH 7.2, 35°, by 3 hours). Further, the “major modified component, percent of total hemoglobin” value in data set [3] (1 mM COHb, 2 mM FMP, pH 7.2, 35°, by 10 minutes) is on record as “approximately 35%”. For the same compound, in data set [3] (COHb, bisTris compared to HEPES, pH 7.5, 35°, 2 hours), the “effect of buffer on amounts or varieties of reaction products” value is “No significant differences”. For the same compound, the “pH of greatest reaction between COHb and FMP” value in data set [3] (pH range 6.8 to 7.5, bisTris) amounted to 7.2. Besides, in the data set with human hemoglobin [4] (absence of 2,3-diphosphoglycerate), the “cross-links formed in hemoglobin” value was “cross-linked between β subunits (val-1 to lys-82) and between the same residues in a single β subunit as well as a cross-link between α subunits between lys-99 in each subunit; also recorded: cross-linked between β subunits (val-1 to lys-82) and between the same residues in a single β subunit as well as crosslinked between α subunits between lys-99 in each subunit”. In the data set on human hemoglobin [4] (human hemoglobin), the “cross-linking site of reaction” value was “the highly cationic site which binds 2,3-diphosphoglycerate”.

Compound `COP(=O)(O)OC(=O)c1cccc(/C=C/c2cccc(C(=O)OP(=O)(O)OC)c2)c1` [Stilbene 3,3'-dicarboxylic acid bis(sodiummethyl phosphate)] had a half-life in data set [2] of 100 h. Further, in the data set on human hemoglobin [1], the “species produced by reaction” value was “dimeric and tetrameric species”.
